Some results are limits rather than exact numbers.

For one test, the target named is Recombinant human cathepsin A (Homo sapiens (Human), UniProt P10619). In words: Cathepsin A inhibitory activity (cleavage of Bodipy FL-labeled bradykinin, microfluidic capillary electrophoresis). The format is biochemical. The settings on record: read-out: Activity (Cathepsin A inhibitory activity, IC50).
Chain of Recombinant human cathepsin A (P10619 29-326): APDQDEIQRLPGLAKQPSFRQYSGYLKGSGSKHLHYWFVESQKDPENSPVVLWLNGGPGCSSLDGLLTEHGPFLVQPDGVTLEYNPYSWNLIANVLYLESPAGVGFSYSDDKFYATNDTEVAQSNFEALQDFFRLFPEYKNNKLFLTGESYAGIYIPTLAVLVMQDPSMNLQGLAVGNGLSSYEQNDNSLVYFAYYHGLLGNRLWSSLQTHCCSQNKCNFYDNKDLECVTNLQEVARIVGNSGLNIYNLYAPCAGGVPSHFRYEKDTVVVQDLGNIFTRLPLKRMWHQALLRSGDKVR
Chain of Recombinant human cathepsin A (P10619 327-480): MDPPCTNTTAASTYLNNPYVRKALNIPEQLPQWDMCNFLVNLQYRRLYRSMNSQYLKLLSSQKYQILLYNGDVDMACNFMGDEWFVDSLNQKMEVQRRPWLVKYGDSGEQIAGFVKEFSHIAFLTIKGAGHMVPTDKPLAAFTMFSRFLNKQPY
For the compound `O=C(O)C[C@H](NC(=O)c1cccc(-c2ccccc2Cl)n1)c1ccccc1C(F)(F)F` [compound 612], the IC50 was 1.66 µM.

On to `O=C(O)C[C@H](NC(=O)c1cccc(-c2ccccc2F)n1)c1ccc(Cl)cc1Cl` [compound 605], for which the IC50 was found to be 2.28 µM.

Still in this test, the particulars now being: read-out: Activity (IC50, cathepsin A inhibition).
On to `COc1ccc(C(=O)N[C@@H](CC(=O)O)c2ccccc2Cl)nc1-c1ccc(C#N)cc1F` [compound 494], for which the IC50 is 11.4 µM. On to `O=C(O)CC(NC(=O)c1cccc(Br)n1)c1ccccc1Cl` (centres unmarked) [compound 562], for which the concentration for half-maximal inhibition (IC50) was found to be 2.1 µM.

For `COc1ccc(C(=O)N[C@@H](CC(=O)O)c2ccccc2Cl)nc1-c1cccc(C2(O)COC2)c1` [compound 495], the IC50 was found to be 3.89 µM. For the compound `O=C(O)CC(NC(=O)c1ccc2cnccc2n1)c1ccccc1Cl` (centres unmarked) [compound 544], the IC50 was found to be 11.1 µM. On the same count and under the same terms, next, `COc1ccc(C(=O)N[C@@H](CC(=O)O)c2ccccc2C)nc1-c1cccnc1` [compound 578]: 7.54 µM; `CCc1ccnc(C(=O)NC(CC(=O)O)c2ccccc2Cl)c1` (centres unmarked) [compound 532]: 10.2 µM; `Cc1ccc([C@H](CC(=O)O)NC(=O)c2cccc(-c3ccccc3F)n2)cc1` [compound 559]: 4.38 µM. Still for that read-out and setting: for `Cc1ccccc1[C@H](CC(=O)O)NC(=O)c1cncc(Cl)n1` [compound 514] the value was 1.21 µM. Turning to `O=C(O)C[C@H](NC(=O)c1cccc(-c2ccccc2Cl)n1)c1cccc(F)c1` [compound 587], the IC50 is 7.35 µM.

Still in this test, the particulars now being: read-out: Activity (IC50, cathepsin A inhibitory activity).
For the compound `Cc1ccccc1[C@H](CC(=O)O)NC(=O)c1cc(N(C)C)nc(N(C)C)n1` [compound 13], the IC50 turned out to be 10.1 µM.

As to `COc1ccc(C(=O)N[C@@H](CC(=O)O)c2ccccc2Cl)nc1-c1ccc2ccccc2c1` [compound 427, (S)-3-(2-Chloro-phenyl)-3-[(5-methoxy-6-naphthalen-2-yl-pyridine-2-carbonyl)-amino]-propionic acid], the IC50 was found to be 7.11 µM.

As for `COc1ncc(C(=O)N[C@@H](CC(=O)O)c2ccccc2C)cc1-c1cccc(F)c1` [compound 414], the IC50 came out at 8.07 µM.

Consider `Cc1cc(C(=O)N[C@@H](CC(=O)O)c2ccccc2C)nc(C)n1` [compound 55], for which the IC50 is 5.26 µM. The same measure, in the same setting: for `COc1cc(F)ccc1-c1cncc(C(=O)N[C@@H](CC(=O)O)c2ccccc2C)c1` [compound 85] the value was 7.83 µM; for `Cc1cc(C)nc(C(=O)N[C@@H](CC(=O)O)c2ccccc2C)c1` [compound 51], 1.81 µM; for `Cc1ccccc1[C@H](CC(=O)O)NC(=O)c1ccc(Oc2ccccc2)nc1` [compound 46], 9.94 µM.

`COc1ccc(C(=O)N[C@@H](CC(=O)O)c2ccc(C)cc2)nc1-c1cccc(-c2nnc(C)o2)c1` [compound 249]: the concentration for half-maximal inhibition (IC50) was 8.71 µM. Regarding `COc1ccc(C(=O)N[C@@H](CC(=O)O)c2ccccc2F)nc1-c1cccc(C(F)(F)F)c1` [compound 253], the IC50 amounted to 4.06 µM. On the same count and under the same terms, next, `Cc1ccccc1[C@H](CC(=O)O)NC(=O)c1nc(F)ccc1F` [compound 53]: 2.83 µM. For `COc1ccc(-c2cc(C(=O)N[C@@H](CC(=O)O)c3ccccc3C)cnc2OC)cc1` [compound 409], the IC50 is 9.04 µM. `Cc1ccccc1[C@H](CC(=O)O)NC(=O)c1cncc(-c2ccccc2F)c1` [compound 69]: the 50% inhibitory concentration (IC50) was determined as 1.4 µM. In the case of `COc1ccc(C(=O)N[C@@H](CC(=O)O)c2ccccc2Cl)nc1-c1cccc(-c2nnc(C)o2)c1` [compound 484], the IC50 is 6.69 µM.

`CCc1ccnc(C(=O)N[C@@H](CC(=O)O)c2ccccc2C)c1` [compound 18]: the IC50 is 3.06 µM. Same read-out and setting: next, `COc1ncc(C(=O)N[C@@H](CC(=O)O)c2ccccc2C)cc1-c1ccc(C#N)cc1` [compound 421]: 10.4 µM; `Cc1cccc(C(=O)N[C@@H](CC(=O)O)c2ccccc2C)n1` [compound 10]: 1.24 µM. Same read-out and setting: next, `COc1ccc(C(=O)N[C@@H](CC(=O)O)c2ccccc2F)nc1-c1ccc(C#N)s1` [compound 283]: 5.4 µM; `COc1ncc(C(=O)N[C@@H](CC(=O)O)c2ccccc2C)cc1-c1ccc(F)cc1` [compound 407]: 4.39 µM. Still for that read-out and setting: next, `COc1ccc(C(=O)N[C@@H](CC(=O)O)c2ccc(C)cc2)nc1-c1cc(C(F)(F)F)ccc1F` [compound 236]: 3.57 µM.

`COc1ncc(C(=O)N[C@@H](CC(=O)O)c2ccccc2C)cc1-c1ccc(F)c(Cl)c1` [compound 406]: the IC50 stood at 10 µM. In the case of `Cc1ccccc1[C@H](CC(=O)O)NC(=O)c1ccc2nc[nH]c2n1` [compound 34], the IC50 amounted to 5.07 µM. Same read-out and setting: for `COc1ccc(C(=O)N[C@@H](CC(=O)O)c2ccccc2Cl)nc1-c1cccc(-c2ccccc2)c1` [compound 436] the value was 2.97 µM. As to `COc1ncc(C(=O)N[C@@H](CC(=O)O)c2ccccc2Cl)cc1-c1cccc(-c2ccccc2)c1` [compound 400], the IC50 is above 10 µM.

Take `COc1ccc(C(=O)N[C@@H](CC(=O)O)c2ccccc2C)nc1-c1ccc(C#N)cc1` [compound 465]: the IC50 is 6.8 µM. The same measure, in the same setting: next, `COc1ncc(C(=O)N[C@@H](CC(=O)O)c2ccccc2C)cc1-c1ccccc1` [compound 405]: 3.9 µM; `Cc1ccccc1[C@H](CC(=O)O)NC(=O)c1cncc(-c2ccccc2C(F)(F)F)c1` [compound 66]: 4.29 µM; `COc1ccc(C(=O)N[C@@H](CC(=O)O)c2ccc(C)cc2)nc1-c1ccc(C)cc1C` [compound 224]: 3.39 µM. On to `COc1ccc(Cl)cc1-c1nc(C(=O)N[C@@H](CC(=O)O)c2ccccc2Cl)ccc1OC` [compound 459], for which the IC50 turned out to be 1.15 µM. For `COc1ccc(C(=O)N[C@@H](CC(=O)O)c2ccccc2Cl)nc1-c1cccc(C#N)c1` [compound 433], the half-maximal inhibitory concentration (IC50) turned out to be 8.26 µM.

`COc1ccc(C(=O)N[C@@H](CC(=O)O)c2ccccc2Cl)nc1-c1ccc(F)nc1` [compound 453]: the IC50 turned out to be 6.49 µM.

As for `COc1ccc(Cl)cc1-c1nc(C(=O)N[C@@H](CC(=O)O)c2ccc(C)cc2)ccc1OC` [compound 233], the IC50 worked out at 2.24 µM. With `Cc1ccccc1[C@H](CC(=O)O)NC(=O)c1cc(CC(C)C)nc(N)n1` [compound 52], the IC50 worked out at 3.68 µM. `COc1ccc(C(=O)N[C@@H](CC(=O)O)c2ccc(C)cc2)nc1-c1cc(C)cnc1Cl` [compound 247]: the IC50 is 8.43 µM. Take `COc1ccc(C(=O)N[C@@H](CC(=O)O)c2ccccc2F)nc1-c1ccccc1C(=O)N(C)C` [compound 295]: the IC50 worked out at 4.51 µM. Still for that read-out and setting: next, `COc1ccc(C(=O)N[C@@H](CC(=O)O)c2ccccc2Cl)nc1-c1cc(C)cc(Cl)c1` [compound 483]: 9.49 µM. For the compound `COc1ccc(C(=O)N[C@@H](CC(=O)O)c2ccccc2F)nc1-c1ccc(Cl)cc1` [compound 258], the IC50 was 5.27 µM. Still for that read-out and setting: next, `COc1ncc(C(=O)N[C@@H](CC(=O)O)c2ccccc2C)cc1-c1ccccc1F` [compound 418]: 1.08 µM; `COc1ccc(C(=O)N[C@@H](CC(=O)O)c2ccc(C)cc2)nc1-c1ccccc1C(=O)N(C)C` [compound 228]: 3.96 µM. Regarding `Cc1ccccc1[C@H](CC(=O)O)NC(=O)c1cncc(-c2ccc(Cl)cc2Cl)c1` [compound 61], the IC50 is 5.14 µM.

As to `COc1ccc(-c2nc(C(=O)N[C@@H](CC(=O)O)c3ccccc3F)ccc2OC)cc1` [compound 259], the IC50 came out at 5.01 µM.

The test is the same for the next values; noted with them: read-out: Activity [μM] (IC50, cathepsin A inhibitory activity).
As to `Cc1ccc(-c2cncc(C(=O)N[C@@H](CC(=O)O)c3ccccc3C)c2)c(C)c1` [compound 117], the IC50 was found to be 5.27 µM. Consider `Cc1ccccc1[C@H](CC(=O)O)NC(=O)c1cccc(-c2ccc(C(=O)N(C)C)c(Cl)c2)n1` [compound 174], for which the IC50 was 1.59 µM. For the compound `Cc1ccccc1[C@H](CC(=O)O)NC(=O)c1cccc(-c2cccc(C(C)(C)O)c2)n1` [compound 176, (S)-3-({6-[3-(1-Hydroxy-1-methyl-ethyl)-phenyl]-pyridine-2-carbonyl}-amino)-3-o-tolyl-propionic acid], the IC50 was 3.32 µM. Take `COc1ccc(C(=O)N[C@@H](CC(=O)O)c2ccc(C)cc2)nc1-c1ccc(Cl)cc1` [compound 186, (S)-3-{[6-(4-Chloro-phenyl)-5-methoxy-pyridine-2-carbonyl]-amino}-3-p-tolyl-propionic acid]: the IC50 stood at 3.56 µM.

Consider `Cc1ccccc1[C@H](CC(=O)O)NC(=O)c1cccc(-c2ccc(F)cc2F)n1` [compound 149], for which the IC50 is 4.4 µM.

On to `COc1ccc(C(=O)N[C@@H](CC(=O)O)c2ccccc2Cl)nc1-c1cccc(Cl)c1` [compound 340], for which the IC50 came out at 1.51 µM. On the same count and under the same terms, next, `COc1ccc(C(=O)N[C@@H](CC(=O)O)c2ccc(C)cc2)nc1-c1cc(F)cc(F)c1` [compound 207]: 2.65 µM.

`COc1ccc(-c2cc(C(=O)N[C@@H](CC(=O)O)c3ccccc3Cl)cnc2OC)cc1` [compound 387]: the IC50 was found to be 9.43 µM.

For the compound `Cc1ccc(-c2cccc(C(=O)N[C@@H](CC(=O)O)c3ccccc3C)n2)c(C)c1` [compound 162], the IC50 worked out at 1.43 µM. As to `COc1ccc(C(=O)N[C@@H](CC(=O)O)c2ccccc2C)nc1-c1ccc(F)c(Cl)c1` [compound 349], the IC50 amounted to 1.46 µM.

As for `Cc1ccccc1[C@H](CC(=O)O)NC(=O)c1cccc(-c2cccc(-c3ccccc3)c2)n1` [compound 147], the IC50 was determined as 3.16 µM. As to `COc1ccc(C(=O)N[C@@H](CC(=O)O)c2ccccc2C)nc1-c1ccc(C(C)=O)s1` [compound 364], the IC50 came to 9.25 µM. Still for that read-out and setting: next, `COc1cccc(-c2nc(C(=O)N[C@@H](CC(=O)O)c3ccccc3Cl)ccc2OC)c1` [compound 339]: 2.78 µM; `COc1ccc(C(=O)N[C@@H](CC(=O)O)c2ccc(C)cc2)nc1-c1ccc(C)cc1` [compound 188]: 4.45 µM. Still for that read-out and setting: for `COc1ccc(C(=O)N[C@@H](CC(=O)O)c2ccccc2C)nc1-c1cc(C)cc(Cl)c1` [compound 378] the value was 7.49 µM; for `COc1ccc(C(=O)N[C@@H](CC(=O)O)c2ccc(C)cc2)nc1-c1cccc(C)c1` [compound 197], 1.71 µM. The same measure, in the same setting: for `COc1ccc(C(=O)N[C@@H](CC(=O)O)c2ccccc2Cl)nc1-c1ccc(C(F)(F)F)cc1` [compound 337] the value was 9.5 µM.

As usually defined, the IC50 is the concentration that gives 50% inhibition.

The values are drawn from patent publication US9029559B2, “Substituted 3-heteroaroylamino-propionic acid derivatives and their use as pharmaceuticals” (SANOFI, priority 2011, dated 2015).
